# Test results from patent publication US20230270721A1, “INHIBITION OF BAX-MEDIATED CELL DEATH BY ELTROMBOPAG” (Albert Einstein College of Medicine, priority 2020, published 2023).
# Like-named read-outs stand apart in the source and are kept apart here.
# How the values were obtained:
# BAX R134E R145E = target: T1, BAX R134E R145E (Homo sapiens, UniProt Q07812, R134E/R145E); assay: Liposomal permeabilization assay, double mutant; format: biochemical; settings: 250 nM BAX and 5 nM tBID; read-out: IC50, inhibition of liposomal release
# T1 construct: Human full-length (1-192) wild-type BAX (Q07812); made in house; host or cells: E. coli BL21 (DE3) CodonPlus (DE3)-RIPL
# T1 sequence (Q07812 whole entry R134E/R145E): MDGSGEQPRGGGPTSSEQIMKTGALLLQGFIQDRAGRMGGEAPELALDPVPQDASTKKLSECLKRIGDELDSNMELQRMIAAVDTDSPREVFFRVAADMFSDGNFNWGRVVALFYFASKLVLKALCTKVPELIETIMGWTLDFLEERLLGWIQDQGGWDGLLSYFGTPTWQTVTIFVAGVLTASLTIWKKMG
# Description: Lipids (Avanti Polar Lipids) at the following ratio, phosphatidylcholine 48%, phosphatidylinositol 10%, dioleoyl phosphatidylserine 10%, phosphatidylethanolamine, 28%, and tetraoleoyl cardiolipin 4%, were mixed in a total of 1 mg, dried and resuspended in 10 mM HEPES, pH 7, 200 mM KCI, and 5 mM MgCl2 with 12.5 mM 8-aminonaphthalene-1,3,6-trisulfonic acid (ANTS) dye and 45 mM p-xylene-bis-pyridinium bromide (DPX) quencher (Molecular Probes) using a water bath sonicator. Liposomes were formed by extrusion of the suspension using Avanti Mini-Extruder (Cat # 610000) with polycarbonate membranes of 0.1 µm pore size (Avanti Polar Lipids). […] ANTS/DPX release was quantified based on the increase in fluorescence intensity that occurs when the ANTS fluorophore is separated from the DPX quencher upon release from the liposomes into solution. Fluorescence (λex = 355 nm and λem = 520 nm) was measured at 1 minute intervals at room temperature (22-25° C.) indicated using a Tecan Infinite M1000 plate reader. In the case of heat activation, reactions were set up as described in the absence of tBID or BIM, and experiments were recorded at 42° C. The percentage release of ANTS/DPX at any given time point was calculated as percentage release=((F-F0)/(F100-F0))(100), where F0 and F100 are baseline and maximal fluorescence, respectively. […]
# BAX in BAK KO MEFs = target: T2, BAX in BAK KO MEFs (Mus musculus, UniProt Q07813); assay: Cellular Thermal Shift Assay (CETSA); format: cell-based; settings: 10 pM EO, 2 hours
# T2 construct: endogenous in cells; host or cells: BAK KO mouse embryonic fibroblasts
# T2 sequence (Q07813 whole entry): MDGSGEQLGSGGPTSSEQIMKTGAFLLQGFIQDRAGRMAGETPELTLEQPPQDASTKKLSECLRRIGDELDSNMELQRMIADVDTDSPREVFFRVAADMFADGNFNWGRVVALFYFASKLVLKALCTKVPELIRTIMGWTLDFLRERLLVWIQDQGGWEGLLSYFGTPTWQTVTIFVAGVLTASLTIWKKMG
# Description: BAK KO MEFs were seeded in a 10 cm dish for 18-24 hours or until approximately 80% confluent. The media was removed and replaced with media lacking FBS, and cells were treated with 10 pM EO as a 10X stock in H2O or vehicle for 2 hours. The media was then removed, and cells were harvested using a cell scraper and washed twice with PBS. Cells were then resuspended in PBS to 6×10^6 cells/mL, and […] was transferred to PCR tubes. Cells were then heated in a Biorad C1000 Touch Thermal Cycler for 3 minutes using a temperature gradient (50, 52.1, 55.4, 59.4, 64.9, 69.2, 72.1, and 74° C.). Cells remaining at room temperature (25° C.) served as a control. All cells were lysed by three cycles of freeze-thawing using liquid nitrogen. Samples were then centrifuged at 2×10^4 g for 15 minutes. The supernatants were collected and resolved by SDS-PAGE with an N-terminal BAX antibody (Cell Signaling, 2772S). Samples were analyzed and quantified using a Li-Cor Odyssey Clx and normalized to 25° C. (100%) and 74° C.(0%).
# To confirm direct engagement of BAX, Cellular Thermal Shift Assay (CETSA) was performed in BAK KO MEFs.
# BAX = target: T3, BAX (Homo sapiens, UniProt Q07812); assay: Liposomal permeabilization (ANTS/DPX release) assay; format: biochemical; settings: for IC50: 30 minutes
# T3 construct: Human full-length (1-192) wild-type BAX (Q07812); made in house; host or cells: E. coli BL21 (DE3) CodonPlus (DE3)-RIPL
# T3 sequence (Q07812 whole entry): as the sequence (Q07812 whole entry R134E/R145E) above, with E134R, E145R counted along it
# Description: Lipids (Avanti Polar Lipids) at the following ratio, phosphatidylcholine 48%, phosphatidylinositol 10%, dioleoyl phosphatidylserine 10%, phosphatidylethanolamine, 28%, and tetraoleoyl cardiolipin 4%, were mixed in a total of 1 mg, dried and resuspended in 10 mM HEPES, pH 7, 200 mM KCI, and 5 mM MgCl2 with 12.5 mM 8-aminonaphthalene-1,3,6-trisulfonic acid (ANTS) dye and 45 mM p-xylene-bis-pyridinium bromide (DPX) quencher (Molecular Probes) using a water bath sonicator. Liposomes were formed by extrusion of the suspension using Avanti Mini-Extruder (Cat # 610000) with polycarbonate membranes of 0.1 µm pore size (Avanti Polar Lipids). ANTS/DPX encapsulated liposomes were purified from non-encapsulated ANTS/DPX by gel filtration of a 10 mL CL2B-Sepharose (GE Healthcare Life Sciences) gravity-flow column. BAX (50-250 nM) was combined with tBID, BIM, and EO at the indicated concentrations to a volume of 90 µL. Reactions were initiated by the addition of […] of the encapsulated ANTS/DPX liposome stock. ANTS/DPX release was quantified based on the increase in fluorescence intensity that occurs when the ANTS fluorophore is separated from the DPX quencher upon release from the liposomes into solution. Fluorescence (λex = 355 nm and λem = 520 nm) was measured at 1 minute intervals at room temperature (22-25° C.) indicated using a Tecan Infinite M1000 plate reader. In the case of heat activation, reactions were set up as described in the absence of tBID or BIM, and experiments were recorded at 42° C. The percentage release of ANTS/DPX at any given time point was calculated as percentage release=((F-F0)/(F100-F0))(100), where F0 and F100 are baseline and maximal fluorescence, respectively. Triton X-100 (1%) was used to determine the maximum amount of liposomal release per assay and was set to 100%.
# Next, EO’s capacity to modulate BAX activity was evaluated using liposomal release assays. […] Instead, EO was able to inhibit both tBID- and BIM BH3-mediated BAX activation (FIGS. 1E, 1F, and 1G). Inhibition of tBID-mediated BAX activation by EO was inversely proportional to the concentration of the tBID activator, consistent with competitive inhibition of BH3-activator binding.
# BAX-4C = target: T4, BAX-4C (Homo sapiens, UniProt Q07812, C126S/C62S/S4C); assay: Microscale thermophoresis (MST) direct binding; settings: 50 nM labeled BAX; read-out: dissociation constant KD
# T4 construct: Human full-length (1-192) wild-type BAX (Q07812); made in house; host or cells: E. coli BL21 (DE3) CodonPlus (DE3)-RIPL
# T4 sequence (Q07812 whole entry S4C/C62S/C126S): as the sequence (Q07812 whole entry R134E/R145E) above, with S4C, C62S, C126S, E134R, E145R counted along it
# Description: Recombinant BAX C62S-C126S-S5C (4C), previously established for evaluating BAX (Garner, T.P., et al. Nat Chem Biol 15, 322-330 (2019)) binding compounds with MST, or BAX C62S-C126S-S5C-R134E-R145E (R134E-R145E-4C) was labeled at cysteine using the Monolith Protein Labeling Kit Red Maleimide (NanoTemper Technologies) according to the instructions of the manufacturer (Garner, T.P., et al. Nat Chem Biol 15, 322-330 (2019)). Briefly, 10 µM protein was incubated with 0.9 equivalents of dye in MST buffer (100 mM potassium phosphate, pH 7.4, 150 mM NaCI) in the dark at room temperature (22-25° C.) for 1 hr. […] Samples were loaded into standard glass capillaries (Monolith NT.155 Capillaries) and analyzed by MST using a Monolith NT.115 Blue/Red, LED power and IR laser power of 80%. Fraction bound and error was generated by NanoTemper software (MO.Affinity Analysis), and KD values were determined using GraphPad Prism nonlinear fit four-parameter agonist versus response with restraints for 0 and 1 fraction bound.
# To test this hypothesis, a competitive fluorescence polarization assay (FPA) (Gavathiotis, E., et al. Nat Chem Biol 8, 639-645 (2012)) based on the interaction between BAX and fluorescently-labeled stapled BIM-BH3 peptide (FITC-BIM-SAHB) was used (Gavathiotis, E., et al. Nature 455, 1076-1081 (2008)). […]
smiles,measurement,setting,value
"CC1=NN(c2ccc(C)c(C)c2)C(=O)/C1=N\Nc1cccc(-c2cccc(C(=O)O)c2)c1O [EO, eltrombopag]",IC50,BAX R134E R145E,> 10 µM
same,lowering of BAX TM (CETSA),BAX in BAK KO MEFs,9 °C
same,IC50,"BAX; 50 nM BAX and 5 nM tBID, read-out: tBID IC50, inhibition of BAX activity in liposomal release",2.4 µM
same,IC50,"BAX; 50 nM BAX, read-out: BIM IC50, inhibition of BAX activity in liposomal release",4.7 µM
same,IC50,"BAX; 250 nM BAX at 42° C., read-out: heat IC50, inhibition of BAX activity in liposomal release",4.5 µM
same,ability to activate BAX in liposomal release assay,"BAX; concentrations up to 10 µM, no activator",no ability to activate BAX
same,Kd,BAX-4C,0.143 µM
